Settings: 101.33 kPa, Liquid

CCCCCCn1cc[n+](C)c1.F[B-](F)(F)F [1-hexyl-3-methylimidazolium tetrafluoroborate]
Settings | mass density [kg/m3] | viscosity [mPa·s]
288.15 K | 1151.49 | 315.7
289.15 K | 1150.78 | –
290.15 K | 1150.08 | –
291.15 K | 1149.37 | –
292.15 K | 1148.66 | –
293.15 K | 1147.96 | 232.8
294.15 K | 1147.25 | –
295.15 K | 1146.56 | –
296.15 K | 1145.85 | –
297.15 K | 1145.15 | –
298.15 K | 1144.45 | 174.1
299.15 K | 1143.75 | –
300.15 K | 1143.04 | –
301.15 K | 1142.34 | –
302.15 K | 1141.65 | –
303.15 K | 1140.96 | 132.1
304.15 K | 1140.25 | –
305.15 K | 1139.56 | –
306.15 K | 1138.87 | –
307.15 K | 1138.16 | –
308.15 K | 1137.48 | 103
309.15 K | 1136.77 | –
310.15 K | 1136.08 | –
311.15 K | 1135.39 | –
312.15 K | 1134.7 | –
313.15 K | 1134.03 | 81.7
314.15 K | 1133.33 | –
315.15 K | 1132.64 | –
316.15 K | 1131.95 | –
317.15 K | 1131.28 | –
318.15 K | 1130.59 | 65.9
319.15 K | 1129.9 | –
320.15 K | 1129.22 | –
321.15 K | 1128.53 | –
322.15 K | 1127.87 | –
323.15 K | 1127.17 | 53.9

CCCCCCCC[n+]1ccn(C)c1.F[B-](F)(F)F [1-methyl-3-octylimidazolium tetrafluoroborate]
Settings | mass density [kg/m3] | viscosity [mPa·s]
288.15 K | 1110.37 | 412.3
289.15 K | 1109.66 | –
290.15 K | 1108.98 | –
291.15 K | 1108.29 | –
292.15 K | 1107.6 | –
293.15 K | 1106.92 | 300.9
294.15 K | 1106.24 | –
295.15 K | 1105.55 | –
296.15 K | 1104.87 | –
297.15 K | 1104.18 | –
298.15 K | 1103.51 | 222.8
299.15 K | 1102.82 | –
300.15 K | 1102.13 | –
301.15 K | 1101.45 | –
302.15 K | 1100.77 | –
303.15 K | 1100.09 | 168.9
304.15 K | 1099.41 | –
305.15 K | 1098.73 | –
306.15 K | 1098.05 | –
307.15 K | 1097.35 | –
308.15 K | 1096.69 | 131.2
309.15 K | 1096 | –
310.15 K | 1095.32 | –
311.15 K | 1094.64 | –
312.15 K | 1093.96 | –
313.15 K | 1093.29 | 102.9
314.15 K | 1092.6 | –
315.15 K | 1091.92 | –
316.15 K | 1091.25 | –
317.15 K | 1090.57 | –
318.15 K | 1089.89 | 81.8
319.15 K | 1089.23 | –
320.15 K | 1088.54 | –
321.15 K | 1087.88 | –
322.15 K | 1087.21 | –
323.15 K | 1086.51 | 66.7

CCCCn1cc[n+](C)c1.F[B-](F)(F)F [1-butyl-3-methylimidazolium tetrafluoroborate]
Settings | mass density [kg/m3] | viscosity [mPa·s]
293.15 K | 1205.89 | 136.3
294.15 K | 1205.17 | –
295.15 K | 1204.46 | –
296.15 K | 1203.73 | –
297.15 K | 1203 | –
298.15 K | 1202.3 | 103.8
299.15 K | 1201.57 | –
300.15 K | 1200.85 | –
301.15 K | 1200.13 | –
302.15 K | 1199.43 | –
303.15 K | 1198.71 | 80.6
304.15 K | 1198 | –
305.15 K | 1197.28 | –
306.15 K | 1196.58 | –
307.15 K | 1195.85 | –
308.15 K | 1195.16 | 64
309.15 K | 1194.44 | –
310.15 K | 1193.73 | –
311.15 K | 1193.02 | –
312.15 K | 1192.32 | –
313.15 K | 1191.63 | 51.5
314.15 K | 1190.9 | –
315.15 K | 1190.2 | –
316.15 K | 1189.49 | –
317.15 K | 1188.78 | –
318.15 K | 1188.08 | 42.1
319.15 K | 1187.36 | –
320.15 K | 1186.66 | –
321.15 K | 1185.96 | –
322.15 K | 1185.27 | –
323.15 K | 1184.55 | 34.9

— the NIST ThermoML archive (doi:10.1016/j.fluid.2006.12.016)
